Results reported in patent US20220241314A1, “COMPOSITIONS AND METHODS FOR TREATMENT OF HEPATITIS B VIRUS INFECTION” (priority 2019, published 2022).
{ppp} = triphosphate

Tests used:
HBV cccDNA [1] = experiment: HBV cccDNA formation in infected differentiated HepaRG cells (Southern blot, RT-qPCR); assay type: cell-based, HBV (Genotype D); details: HBV 1000 Geq/cell, harvested 3 dpi; for IC50: read-out: IC50, decline of cccDNA relative to DMSO treated controls; for IC90: read-out: IC90, decline of cccDNA relative to DMSO treated controls
Method: (§1) The scheme illustrates the schedule with HBV inoculum (1000 Geq/cell) and administration of Cyclosporin A (CsA), F7, X-RNA and poly-U/UC PAMP. 2.5% DMSO was added to the medium at 1 day post infection (Dpi). cccDNA and PF RC DNA were harvested from HepG2-hNTCP cells using Hirt extraction method and analyzed by Southern blot analysis using an HBV-specific DNA probe. Viral protein-free DNAs (protein-free Relaxed Circular DNA [PF-RC DNA] and cccDNA) are noted. (2B and 2C) HepG2-hNTCP 2(B) or differentiated HepaRG cells (2C) were infected with HBV at moi of 1000 Geq/cell, and administered CsA (10 μM) or F7, in the indicated concentrations. For upper panels of (2B) and (2C), DNAs were isolated after Hirt extraction at 3 dpi and subjected to Southern blot analysis using as HBV-DNA probe. […] (2D and 2E) HepG2-hNTCP (2D) or dHepaRG cells (2E) were infected with HBV at an moi of 1000 Geq/cell, and administered CsA (10 μM), X-RNA (100 ng/ml), or poly-U/UC PAMP in the indicated concentrations. For upper panels of (2D) and (2E), DNAs were analyzed using Southern blot analysis. For lower panels of (2D) and (2E), DNAs were analyzed by RT-qPCR. IC90, and IC50 values were calculated based on the decline of the cccDNA relative to DMSO treated controls. IC90, and IC50 values are the average of three experiments±one standard deviation. […] Positions of mass markers are indicated on each Southern blot.
(§2) HBV infection HBV (Genotype D) was purified from the supernatant of HepAD38 cells by PEG concentration and subsequent sucrose gradient, as described previously (Ko, C., et al. (2014). DDX3 DEAD-Box RNA Helicase Is a Host Factor That Restricts Hepatitis B Virus Replication at the Transcriptional Level. Journal of Virology 88, 13689-13698; Watashi, K., et al. (2013), supra). For HBV infection cells were seeded into collagen-coated plates. One day later, the cells were infected with HBV in DMEM containing 4% polyethylene glycol 8000 (PEG-8000). The multiplicities of infection (expressed as virus genome equivalent/cell) are indicated in each Figure Legend. The inocula were removed 24 hours later, and the infected cultures were maintained in complete DMEM containing 2.5% DMSO until harvesting, as described previously (Ni, Y., et al. (2014). Hepatitis B and D viruses exploit sodium taurocholate co-transporting polypeptide for species-specific entry into hepatocytes. Gastroenterology 146, 1070-1083).
Reverse transcription quantitative real time qPCR (RT-qPCR) analysis: Total cellular RNAs were extracted from cells using TRIZOL reagent and the manufacturers protocol (Invitrogen). cDNA was synthesized from the purified RNA by both random and oligo (dT) priming using iScript select cDNA synthesis kit (Biorad, Inc.). […]

HBV cccDNA [2] = experiment: HBV cccDNA formation in infected HepG2-hNTCP cells (Hirt extraction, Southern blot, RT-qPCR); assay type: cell-based, HBV (Genotype D); details: harvested 3 dpi; for level of protein free-relaxed circular (PF-RC) DNA, Southern blot / HBV cccDNA formation, Southern blot: HepG2-hNTCP, treated following HBV infection; for HBV cccDNA formation, Southern blot: versus DMSO or X-RNA controls; for IC50 / IC90: HBV 1000 Geq/cell; for IC50: read-out: IC50, decline of cccDNA relative to DMSO treated controls; for IC90: read-out: IC90, decline of cccDNA relative to DMSO treated controls
Method: as §1
To determine how IRF3 activation impacts HBV infection and production of cccDNA in infected cells, HepG2-hNTCP cells were treated with F7 or poly-U/UC PAMP (100 ng/ml [=2.94 nM] or 200 ng/ml [=5.87 nM]) following HBV infection. Cyclosporin A (CsA) treatment was employed as an HBV entry inhibitor antiviral control (Watashi, K., et al. (2014). Cyclosporin A and its analogs inhibit hepatitis B virus entry into cultured hepatocytes through targeting a membrane transporter, sodium taurocholate cotransporting polypeptide (NTCP). Hepatology (Baltimore, Md.) 59, 1726-1737). Cells were harvested 3 days post-infection (dpi) and extracts were prepared using Hirt extraction methods for isolating protein-free DNA, as shown in FIG. 2A (Guo, H., et al. (2007). Characterization of the Intracellular Deproteinized Relaxed Circular DNA of Hepatitis B Virus: an Intermediate of Covalendy Closed Circular DNA Formation. Journal of Virology 81, 12472-12484 Hirt, B. (1967). Selective extraction of polyoma DNA from infected mouse cell cultures. Journal of molecular biology 26, 365-369).
as §2
Reverse transcription quantitative real time qPCR (RT-qPCR) analysis: Total cellular RNAs were extracted from cells using TRIZOL reagent and the manufacturers protocol (Invitrogen). cDNA was synthesized from the purified RNA by both random and oligo (dT) priming using iScript select cDNA synthesis kit (Biorad, Inc.). For HBV cccDNA expression analysis, total DNA was extracted using the DNeasy kit (QIAGEN).

[3] = Hepatitis B virus, differentiated HepaRG cells
[4] = Hepatitis B virus, HepG2-hNTCP cells

| Molecule | IC50 (HBV cccDNA [1]; [3]) | IC90 (HBV cccDNA [1]; [3]) | level of protein free-relaxed circular (PF-RC) DNA, Southern blot (HBV cccDNA [2]) | HBV cccDNA formation, Southern blot (HBV cccDNA [2]) | IC50 (HBV cccDNA [2]; [4]) | IC90 (HBV cccDNA [2]; [4]) | IC50 (HBV cccDNA [1]; dHepaRG cells) | IC90 (HBV cccDNA [1]; dHepaRG cells) | IC50 (HBV cccDNA [2]; HepG2-NTCP cells) | IC90 (HBV cccDNA [2]; HepG2-NTCP cells) |
| --- | --- | --- | --- | --- | --- | --- | --- | --- | --- | --- |
| O=C(Nc1ccc2nc(NC(=O)c3ccc4ccccc4c3)sc2c1)c1ccccc1 [F7, N-(6-benzamido-1,3-benzothiazol-2-yl)naphthalene-2-carboxamide] | ~3380 nM | ~12800 nM | markedly decreased | suppressed HBV cccDNA formation | ~8480 nM | ~17400 nM | – | – | – | – |
| poly-U/UC PAMP: ~100 nt PAMP motif from the HCV genome comprising 5′ppp and the poly U/UC region, recognized by RIG-I; formulated in liposome (nucleic acid, RNA, 5' {ppp}, backbone and methylation of C not given here; formulated in liposome, ~100 nt PAMP motif from the HCV genome comprising 5′ppp and the poly U/UC region, recognized by RIG-I; formulated in liposome) GGCCAUCCUGUUUUUUUCCCUUUUUUUUUUUCUUUUUUUUUUUUUUUUUUUUUUUUUUUUUUUUUUCUCCUUUUUUUUUCCUCUUUUUUUCCUUUUCUUUCCUUU | – | – | markedly decreased | suppressed HBV cccDNA formation | – | – | ~1.61 nM | ~3.3 nM | ~1.94 nM | ~12 nM |
